We go through three compounds from US20100152102A1, “USE OF SO[…] ONE OF ITS ANALOGUES FOR PREPARING A […] TO REGULATE THE OVARIAN […] IN NON-[…]” (Preglem S.A., priority 2003, published 2010).

[ ]: non-standard residue; d: D form. Tic = O=C(O)[C@@H]1Cc2ccccc2CN1; Abu = CC[C@H](N)C(=O)O

For test [1], the system named is primordial follicles of ewe ovarian cortex. Description: culture of ovarian cortex fragments of adult ewes for 10 days. To be noted: 10 days culture; for start of growth of the primordial follicles: vs control (FIG. 3). The test is classed as cell-based. How it is done:
Ovaries of adult ewes are collected immediately after slaughter. The ovaries are placed in an organ transport medium without serum (X-vivo, Bio Whittaker, Walkersville, Md., USA) at 10° C. and transported to the laboratory. Approximately 1 h after removal, the cortex is isolated from the medulla then fractionated into slices of 2 mm thickness (1 cm^2, average weight of 212 mg) after rinsing in new X-vivo. The cortex fragments are cultured in an oven under 5% oxygen for 10 days in well plates in the presence of DMEM. The medium is changed every 2 days.
The procedure used is the same as for Example 1, except that the somatostatin is replaced with one of its agonist analogues, namely the synthetic peptide of formula c[Tic-Tyr-DTrp-Lys-Abu-Phe] (hereafter AG1 peptide).
The procedure used is the same as for Example 1, except that the somatostatin is replaced by one of its antagonist analogues, namely the synthetic peptide of formula Cpa-c(DCys-3-Pal-DTrp-NMeLys-Thr-Cys)-2-Nal-NH2 (hereafter ANT1 peptide).

Another test concerns antral follicles. Description: envisaged case: patient with polycystic ovary syndrome treated with lanreotide acetate. The test is classed as in vivo, women. As to conditions: 120 mg/month, 4th month of treatment.

On to cyclo([Tic]Y[dW]K[Abu]F) [AG1 peptide], for which, in test [1] (AG1 peptide 10^−9M, FIG. 4), the “number of primary follicles” value was “absence of increase”, the “number of primordial follicles” value is listed as “maintenance over time” and the “start of growth of the primordial follicles” value was “very significantly inhibits”.

“Cpa-c(DCys-3-Pal-DTrp-NMeLys-Thr-Cys)-2-Nal-NH2 [ANT1 peptide]”: the “start of growth of the primordial follicles” value in test [1] (ANT1 peptide 10^−6M, FIG. 5) was “accentuates”.

Consider `CC(C)[C@@H]1NC(=O)[C@H](CCCCN)NC(=O)[C@@H](Cc2c[nH]c3ccccc23)NC(=O)[C@H](Cc2ccc(O)cc2)NC(=O)[C@@H](NC(=O)[C@H](N)Cc2ccc3ccccc3c2)CSSC[C@@H](C(=O)N[C@H](C(N)=O)[C@@H](C)O)NC1=O` [lanreotide acetate], for which, in the test with antral follicles, the “ultrasound of the ovaries: ovarian volume and number of antral follicles” value is “reduction in ovarian volume and in the number of antral follicles”.
